{"source": "patent US9290710B2", "about": "“Synergistic antimicrobial composition” (Dow Global Technologies LLC, priority 2009, dated 2016)", "key": {"[1]": {"test_system": "oil field isolated anaerobic consortium, mainly SRB", "assay": "Biocidal efficacy (MBC, complete kill) of THPS, HHT and THPS/HHT against SRB, 40° C., 24 hour", "format": "cell-based, Sulfate Reducing Bacteria (SRB)", "settings": "alone or in THPS/HHT blend, 10^6 to 10^7 CFU/mL", "experimental": "Inside an anaerobic chamber (Bactron anaerobic chamber), a deaerated sterile salt solution (3.1183 g of NaCl, 1.3082 mg of NaHCO3, 47.70 mg of KCl, 72.00 mg of CaCl2, 54.49 mg of MgSO4, 172.28 mg of Na2SO4, 43.92 mg of Na2CO3 in 1 L water) was contaminated with an oil field isolated anaerobic consortium, mainly SRB, at final bacterial concentrations of 10^6 to 10^7 CFU/mL. The aliquots of this contaminated water were then treated with THPS and hexahydro-1,3,5-tris(2-hydroxyethyl)-s-triazine (HHT), or the THPS/HHT combination at different active concentration levels. […] Table 1 summarizes the efficacy of each biocide and their blend, and the Synergy Index*^1 of each combination. *^1Synergy Index=Ca/CA+Cb/CB\n• Ca: Concentration of biocide A required to achieve a complete bacterial kill when used in combination with Biocide B • CA: Concentration of biocide A required to achieve a complete bacterial kill when used alone • Cb: Concentration of biocide B required to achieve a complete bacterial kill when used in combination with Biocide A • CB: Concentration of biocide B required to achieve a complete bacterial kill when used alone A Synergy Index less than 1 indicates synergy."}, "oilfield SRB consortium": {"test_system": "oilfield SRB consortium", "assay": "Biocidal efficacy of THPS/HHT against anaerobic bacteria in a high temperature and sulfide-rich environment", "format": "cell-based, Sulfate Reducing Bacteria (SRB)", "settings": "alone or in THPS/HHT blend, 80° C., 7 days, daily challenge of SRB and 10 ppm sulfide", "experimental": "Inside an anaerobic chamber (BACTRON IV), biocides solutions were challenged with 10^4 to 10^5 CFU/mL of an oilfield SRB consortium and 10 ppm sulfide ion (added in the form of sodium sulfide). The biocide solutions were then incubated at 80° C. under anaerobic condition for 7 days, with daily challenge of the SRB consortium (10^4 to 10^5 CFU/mL) and sulfide ion (10 ppm). The biocidal efficacy was determined by selecting the lowest testing biocide dosage required for 99.999% or complete bacterial kill after both 2 hours and 7 days of heat, SRB and sulfide exposure. Synergy Index was then calculated. Table 2 summarizes the efficacy of each biocide and their blend, and the Synergy Index of each combination.\n(§1) A Synergy Index less than 1 indicates synergy."}, "[2]": {"test_system": "oil field isolated anaerobic SRB consortium", "assay": "Biocidal efficacy of THPS, DXN and THPS/DXN against SRB (99.99% reduction in 24 hours)", "format": "cell-based, Sulfate Reducing Bacteria (SRB)", "settings": "alone or in THPS/DXN blend, 40° C., 10^6 to 10^7 CFU/mL", "experimental": "Inside an anaerobic chamber (Bactron III), a deaerated sterile salt solution (3.1183 g of NaCl, 1.3082 mg of NaHCO3, 47.70 mg of KCl, 72.00 mg of CaCl2, 54.49 mg of MgSO4, 172.28 mg of Na2SO4, 43.92 mg of Na2CO3 in 1 L water) was contaminated with an oil field isolated anaerobic SRB consortium at final bacterial concentrations of 10^6 to 10^7 CFU/mL. The aliquots of this contaminated water were then treated with THPS, DXN, or the THPS/DXN combinations at different active concentration levels. After the mixtures were incubated at 40° C. for 24 hour, the viable bacterial number were enumerated using a serial dilution method and the biocidal efficacy was determined by the biocide dosage required for 99.99% bacterial reduction in 24 hours. Synergy Index was then calculated. Table 3 summarizes the efficacy of each biocide and their blends, and the Synergy Index of each combination.\nas §1"}, "[3]": {"test_system": "oil field isolated anaerobic consortium, mainly SRB", "assay": "Biocidal efficacy of THPS, NaOPP and THPS/NaOPP against anaerobic bacteria (99.999% reduction)", "format": "cell-based, Sulfate Reducing Bacteria (SRB)", "settings": "alone or in THPS/NaOPP blend, 40° C., 24 hour, 10^7 CFU/mL", "experimental": "Inside an anaerobic chamber (Bactron anaerobic chamber), a deaerated sterile salt solution (3.1183 g of NaCl, 1.3082 mg of NaHCO3, 47.70 mg of KCl, 72.00 mg of CaCl2, 54.49 mg of MgSO4, 172.28 mg of Na2SO4, 43.92 mg of Na2CO3 in 1 L water) was contaminated with an oil field isolated anaerobic consortium, mainly SRB, at final bacterial concentrations of 10^7 CFU/mL. […] After the mixtures were incubated at 40° C. for 24 hour, the viable bacteria were enumerated using serial dilution method. The biocidal efficacy was determined by minimum tested biocide concentration for 99.999% bacterial reduction in the aliquots."}, "[4]": {"test_system": "Psedomonas aeruginosa ATCC 10145 and Staphylococcus aureus ATCC 6538", "assay": "Biocidal efficacy of THPS, NaOPP and THPS/NaOPP against aerobic bacteria (99.999% reduction)", "format": "cell-based", "settings": "alone or in THPS/NaOPP blend, PBS buffer (pH7), 37° C., 24 hour", "experimental": "A PBS buffer (pH7) was contaminated with Psedomonas aeruginosa ATCC 10145 and Staphylococcus aureus ATCC 6538 at final bacterial concentration of −10^6 CFU/ml. […] After the mixtures were incubated at 37° C. for 24 hour, the viable bacteria were enumerated using serial dilution method. The biocidal efficacy was determined by minimum tested biocide concentration for 99.999% bacterial reduction in the aliquots."}, "[5]": {"test_system": "oil field isolated SRB consortium", "assay": "Biocidal efficacy (MBC, complete kill) of THPS, NaOPP and THPS/NaOPP against SRB", "format": "cell-based, Sulfate Reducing Bacteria (SRB)", "settings": "alone or in THPS/NaOPP blend, 40° C., 24 hours, 10^6 to 10^7 CFU/mL", "experimental": "Inside an anaerobic chamber (Bactron anaerobic chamber), a deaerated sterile salt solution (3.1183 g of NaCl, 1.3082 mg of NaHCO3, 47.70 mg of KCl, 72.00 mg of CaCl2, 54.49 mg of MgSO4, 172.28 mg of Na2SO4, 43.92 mg of Na2CO3 in 1 L water) was contaminated with an oil field isolated SRB consortium, at final bacterial concentrations of 10^6 to 10^7 CFU/mL. The aliquots of this contaminated water were then treated with THPS, NaOPP, or the THPS/NaOPP combinations at different active concentration levels. After the mixtures were incubated at 40° C. for 24 hours, the viable bacteria in the aliquots were detected in culture medium. The biocidal efficacy was determined by minimum tested biocide concentration for a complete bacterial kill in the aliquots (MBC). Table 4 summarizes the efficacy of each biocide and their blends, and the Synergy Index of each combination."}}}
{"compound": "OCCN1CN(CCO)CN(CCO)C1", "note": "[HHT, hexahydro-1,3,5-tris(2-hydroxyethyl)-s-triazine]", "values": [{"measurement": "Average MBC HHT", "setting": "[1]; HHT concentration for complete bacteria kill", "result": 79.0, "unit": "active ppm"}, {"measurement": "Dosage required for 99.999% or complete bacterial kill of both 2 h and 7 day heat, SRB, and sulfide exposure, HHT", "setting": "oilfield SRB consortium; HHT", "result": 133.3, "unit": "active ppm"}]}
{"compound": "CC(=O)OC1CC(C)OC(C)O1", "note": "(stereo not drawn) [DXN, 2,6-dimethyl-1,3-dioxan-4-yl acetate]", "values": [{"measurement": "Dosage required for 99.99% bacterial reduction, DXN", "setting": "[2]; DXN", "result": 330.9, "unit": "active ppm"}]}
{"compound": "[Na+].[O-]c1ccccc1-c1ccccc1", "note": "[NaOPP, sodium o-phenylphenylate]", "values": [{"measurement": "Concentration required for 99.999% bacterial reduction, NaOPP", "setting": "[3]; NaOPP", "result": 303.8, "unit": "ppm active"}, {"measurement": "Concentration required for 99.999% bacterial reduction, NaOPP", "setting": "[4]; NaOPP", "result": 202.5, "unit": "ppm active"}, {"measurement": "Average MBC NaOPP", "setting": "[5]; NaOPP concentration for complete bacterial kill", "result": 333.3, "unit": "active ppm"}]}
{"compound": "tetrakis(hydroxymethyl)phosphonium sulfate [THPS]", "values": [{"measurement": "Average MBC THPS", "setting": "[1]; THPS concentration for complete bacteria kill", "result": 6.1, "unit": "active ppm"}, {"measurement": "Concentration required for 99.999% bacterial reduction, THPS", "setting": "[3]; THPS", "result": 11.9, "unit": "ppm active"}, {"measurement": "Concentration required for 99.999% bacterial reduction, THPS", "setting": "[4]; THPS", "result": 26.7, "unit": "ppm active"}, {"measurement": "Average MBC THPS", "setting": "[5]; THPS concentration for complete bacterial kill", "result": 7.9, "unit": "active ppm"}, {"measurement": "Dosage required for 99.99% bacterial reduction, THPS", "setting": "[2]; THPS", "result": 5.5, "unit": "active ppm"}, {"measurement": "Dosage required for 99.999% or complete bacterial kill of both 2 h and 7 day heat, SRB, and sulfide exposure, THPS", "setting": "oilfield SRB consortium; THPS", "result": 88.9, "unit": "active ppm"}]}
